What was measured:
Assay type in all cases: binding
[1] = target: T1, hDGKa C1 domain cysteines (Homo sapiens, UniProt P23743); assay: JWB003 labeling competition in vitro
T1 construct: expressed in transfected cells; host or cells: HEK293T
Procedure: • 1. HEK293T cells were harvested in cold PBS. • a. Cells were transferred to Eppendorf tube. • 2. Cells were lysed via tip sonicator. • 3. Cells were fractionated into membrane and soluble fraction. • a. 100,000×G for 45 minutes at 4 degree. • b. Supernatant was separated from cell pellet. • 4. Dilute proteomes to 1 mg/mL in PBS and aliquot appropriate reaction volume (49 μL for probe only; 48 μL for competition+probe) • 5. Cells were treated with 50× inhibitor. • a. Incubated for 1Hr at 37 degree. • 6. Cells were treated with 50× Probe (JWB003). • a. Incubated for 1Hr at 37 degree. • 7. Add 6 μL of master mix to each alkyne probe-labeled sample. • a. 1 μL of 1.25 mM Rh-N3 • b. 1 μL of fresh 50 mM TCEP • c. 3 μL of 1.7 mM TBTA stock • d. 1 μL of 50 mM CuSO4 • 8. Vortex samples. • 9. Incubate at room temperature for 1 hr • 10. Quench with 17 μL of 4×SDS-PAGE loading buffer+βME and vortex tubes. • 11. Analyze 30 μL samples by SDS-PAGE immediately. [B] Labeling HEK293T Cells to Determine Target Proteins of JWB003 in Live Cells (In Situ) • 1. Complete media was removed from HEK293T cells and replaced with serum free media containing JWB003 at the appropriate final concentration • a. Cells were placed in incubator for appropriate time at 37 degree 5% CO2 • 2. Cells were washed • a. 2× warm PBS • b. 2× cold PBS • c. Harvest cells in cold PBS • 3. Cells were transferred to Eppendorf tube • 4. Cells were lysed via tip sonicator • 5. Cells were fractionated into membrane and soluble fraction • a. 100,000×G for 45 minutes at 4 degrees • b. Supernatant was separated from cell pellet. • 6. Dilute proteomes to 1 mg/mL and aliquot appropriate reaction volume (50 μL) • 7. Add 6 μL of master mix to each alkyne probe-labeled sample. • a. 1 μL of 1.25 mM Rh-N3 • b. 1 μL of fresh 50 mM TCEP • c. 3 μL of 1.7 mM TBTA stock • d. 1 μL of 50 mM CuSO4 • 8. Vortex samples. • 9. Incubate at room temperature for 1 hr. • 10. Quench with 17 μL of 4×SDS-PAGE loading buffer+βME and vortex tubes. • 11. Analyze 30 μL samples by SDS-PAGE immediately. [C] […]

[2] = target: T2, recombinant DGKα (Rattus norvegicus, UniProt P51556); assay: Gel-based ATP acyl phosphate chemical proteomic assay; conditions: compounds 100 μM (ATP 1 mM; RF001 at indicated concentrations), 30 min; probe 10 μM
T2 construct: expressed in transfected cells; host or cells: HEK293T (SILAC HEK293T for LC-MS)
Procedure: Cell pellets were resuspended in kinase buffer (Dulbecco's PBS (DPBS, Hyclone), 20 mM MgCl2, EDTA-free protease inhibitors (Pierce)) and then lysed by sonication (3×1 sec pulse, 20% amplitude). The cell lysates were then subjected to centrifugation (100,000×g, 45 min at 4° C.) to isolate the cytosolic fraction in the supernatant and the membrane fraction as a pellet. The membrane pellet was resuspended in kinase buffer by sonication. […] The only exception was experiments involving DGKE; recombinant DGKE protein was most prominently expressed in the membrane fraction and so this fraction was utilized to study DGKE enzyme (see FIG. 8). Protein concentrations were measured using the Bio-Rad DC protein assay. Samples were stored at −80° C. until use.
Proteome concentration was adjusted to 2 mg/mL in kinase buffer. Proteomes were first pre-treated with compound (0.6 μL, 50× stock in DMSO) mixed with gentle flicking, and incubated for 30 min at 25° C. in a microfuge tube (30 μL reaction volume). […] Reactions were then quenched with 10 AL of 4×SDS-PAGE loading buffer. Protein samples (15 μL) were loaded onto 4-20% TGX Stain-Free Protein Midi Gel and resolved by SDS-PAGE at 150V for 55 min. Proteins were then transferred to a nitrocellulose blot by Bio-Rad Trans-Blot Turbo Transfer System (25V. 10 min) to enhance sensitivity. The nitrocellulose blot was then incubated in blocking solution (30 mL, 3% BSA in TBS-T) for 1 h at 25° C. with gentle shaking. The blot was then transferred immediately to antibody solution (30 mL, 5% BSA in ddH2O with 0.1% Tween20 and 1:3000 Streptavidin DyLight 550) and incubated for 2 h at 25° C. with gentle shaking. The blot was then rinsed 5 times for 5 min in TBS-T. and then transferred into ddH2O. The blot was then imaged by in-blot fluorescence scanning on a ChemiDoc MP Imaging System. Fluorescence intensity signals were normalized to total lane protein using the Bio-rad Stain Free imaging (Posch et al., 2013).
The percentage of enzyme activity remaining was determined by comparing integrated band intensities or luminescence of inhibitor—with DMSO-treated samples for gel-based chemical proteomic or ADP-glo assays, respectively. For both chemical proteomic and ADP-glo methods, nonlinear regression analysis was used to determine the IC50 values from a dose-response curve generated using GraphPad Prism. Data are shown as mean±s.e.m. Determination of significance was performed by one-way ANOVA. All statistical analyses were performed using GraphPad Prism.

[3] = target: T3, DGKA (Diacylglycerol kinase alpha) (Rattus norvegicus, UniProt P51556); assay: SILAC LC-MS ATP acyl phosphate probe competition, recombinant DGK-HEK293T lysates
T3 construct: expressed in transfected cells; host or cells: HEK293T (SILAC HEK293T for LC-MS)
Procedure: All other vectors were gifted to Dr. Kevin Lynch (University of Virginia, School of Medicine) by Dr. Kaoru Goto (Yamagata University, School of Medicine) and Dr. Fumio Sakane (Chiba University) and were kindly shared with us: pcDNA3-FLAG-DGKA (rat), pCMV-Tag2B-FLAG-DGKQ (human), pcDNA3-DGKE-3×Flag (human), and pCMV-SPORT6-HA-DGKZ (human). HEK293T cells were plated at a concentration of 400,000 cells in complete DMEM and grown to 50-60% confluency. A polyethyleneimine (PEI) stock solution was prepared (1 mg/mL, pH 7.4) and filter sterilized. Serum-free DMEM (600 μL) was mixed gently with 2.6 μg DNA and 20 μL of sterile PEI (1 mg/mL, pH 7.4) in a sterile microfuge tube. Mixtures were incubated for 30 min at 25° C. The mixture was then added drop-wise to each 10 cm^2 plate, rocked back and forth to mix, and placed back in the incubator. Cell pellets were harvested after two full days of growth, snap-frozen in liquid N2, and stored at −80° C. until use. Recombinant proteins were produced by transient transfection in SILAC HEK293T cells using the procedure described above, except that cells were plated at a concentration of 1×10^6 cells per 10 cm^2 plate and grown to ˜70% confluency prior to introducing transfection mixture.
Proteomes were diluted to 2 mg/ml in kinase buffer. The light and heavy proteomes (0.5 mg, 250 μL total reaction volume) were pre-treated with vehicle or compound, respectively (5 μL, DMSO (light) or 50× stock in DMSO (heavy)), mixed gently, and incubated at 25° C. for 30 min. […] After incubation, matched light and heavy proteomes were transferred and mixed in a 1:1 ratio in a two-dram vial containing 4:1:3 MeOH/CHCl3/H2O (2 mL MeOH, 500 AL CHCl3, 1.5 mL H2O) for extraction of proteins to remove excess probe, quickly vortexed, and centrifuged at 1,400×g for 3 min to pellet protein. Organic and aqueous layers were removed using a Pasteur pipette, and the protein pellet was transferred to a screw-top tube in 600 μL MeOH. A second extraction was performed by adding CHCl3 (150 μL) and H2O (600 μL) to each sample, vortexed, and centrifuged at 1,400×g for 3 min to pellet protein. Organic and aqueous layers were removed by pipetting. MeOH added to pellet (600 μL) and pellets were re-suspended by sonication (3×1 sec pulse, 20% amplitude) for a final extraction. Samples were then centrifuged at 17,000×g for 5 min to pellet protein and MeOH was removed by pipetting. […] To desalt the samples, each was transferred to a two-dram glass vial, and to the vial 4:1:2 MeOH/CHCl3/H2O (2 mL MeOH, 500 AL CHCl3, 1 mL H2O) was added. The vials were vortexed quickly, spun at 1.400×g for 3 min to pellet protein, and aqueous and organic layers were removed using a Pasteur pipette. The resulting protein pellet was transferred to a screw-top tube in 600 μL MeOH, and then CHCl3 (150 μL) and HO (600 μL) were added to extract protein a second time. The samples were vortexed quickly, centrifuged at 1,400×g to pellet protein, and the aqueous and organic layers were removed by pipetting. Resulting protein pellet was suspended in MeOH (600 μL) via sonication (3×1 sec pulse, 20% amplitude), centrifuged at 17,000×g for 5 min to pellet protein, and MeOH removed by pipetting. Protein pellets were then re-suspended in 25 mM ammonium bicarbonate (500 μL) and digested with 7.5 μg Trypsin/Lys-C(Promega, 15 μL, 0.5 μg/μL) for 3 h at 37° C. Avidin-agarose beads (Thermo Scientific Pierce, 100 AL aliquot per sample) were washed three times by adding 10 mL DPBS, centrifuged at 1,400×g for 1 min, and decanting. This wash step was repeated for a total of 3 times. Digested protein samples were mixed with washed avidin beads (100 μL) and brought to a volume of 5.5 mL with DPBS in a 15 mL conical and rotated for 1 h to enrich samples for the covalent desthiobiotin modification. The beads were washed with 25 mM ammonium bicarbonate (3× with 10 mL, centrifuge at 1,400×g for 3 min, decant) and then H2O (3× with 10 mL, centrifuge at 1,400×g for 3 min, decant).

T3 sequence (P51556 whole entry): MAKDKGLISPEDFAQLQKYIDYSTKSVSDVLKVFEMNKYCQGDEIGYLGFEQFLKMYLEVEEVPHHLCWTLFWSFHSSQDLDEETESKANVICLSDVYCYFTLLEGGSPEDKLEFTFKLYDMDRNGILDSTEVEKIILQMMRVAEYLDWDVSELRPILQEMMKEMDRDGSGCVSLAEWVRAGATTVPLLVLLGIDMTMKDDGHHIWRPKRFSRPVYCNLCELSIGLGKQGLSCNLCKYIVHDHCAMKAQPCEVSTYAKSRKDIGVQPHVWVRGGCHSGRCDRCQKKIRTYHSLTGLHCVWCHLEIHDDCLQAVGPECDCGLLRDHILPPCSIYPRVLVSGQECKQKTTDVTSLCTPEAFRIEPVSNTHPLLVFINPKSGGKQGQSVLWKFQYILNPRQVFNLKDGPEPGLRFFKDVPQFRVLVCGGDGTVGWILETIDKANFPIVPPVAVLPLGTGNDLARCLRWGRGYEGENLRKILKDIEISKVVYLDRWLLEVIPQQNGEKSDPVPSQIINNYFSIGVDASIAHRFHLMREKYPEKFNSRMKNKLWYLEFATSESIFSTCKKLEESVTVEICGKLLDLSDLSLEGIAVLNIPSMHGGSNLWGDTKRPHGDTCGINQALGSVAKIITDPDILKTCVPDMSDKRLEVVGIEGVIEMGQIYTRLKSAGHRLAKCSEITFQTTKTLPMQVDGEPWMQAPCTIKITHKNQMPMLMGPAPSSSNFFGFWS
T1 sequence (P23743 whole entry, the tested form may be a part): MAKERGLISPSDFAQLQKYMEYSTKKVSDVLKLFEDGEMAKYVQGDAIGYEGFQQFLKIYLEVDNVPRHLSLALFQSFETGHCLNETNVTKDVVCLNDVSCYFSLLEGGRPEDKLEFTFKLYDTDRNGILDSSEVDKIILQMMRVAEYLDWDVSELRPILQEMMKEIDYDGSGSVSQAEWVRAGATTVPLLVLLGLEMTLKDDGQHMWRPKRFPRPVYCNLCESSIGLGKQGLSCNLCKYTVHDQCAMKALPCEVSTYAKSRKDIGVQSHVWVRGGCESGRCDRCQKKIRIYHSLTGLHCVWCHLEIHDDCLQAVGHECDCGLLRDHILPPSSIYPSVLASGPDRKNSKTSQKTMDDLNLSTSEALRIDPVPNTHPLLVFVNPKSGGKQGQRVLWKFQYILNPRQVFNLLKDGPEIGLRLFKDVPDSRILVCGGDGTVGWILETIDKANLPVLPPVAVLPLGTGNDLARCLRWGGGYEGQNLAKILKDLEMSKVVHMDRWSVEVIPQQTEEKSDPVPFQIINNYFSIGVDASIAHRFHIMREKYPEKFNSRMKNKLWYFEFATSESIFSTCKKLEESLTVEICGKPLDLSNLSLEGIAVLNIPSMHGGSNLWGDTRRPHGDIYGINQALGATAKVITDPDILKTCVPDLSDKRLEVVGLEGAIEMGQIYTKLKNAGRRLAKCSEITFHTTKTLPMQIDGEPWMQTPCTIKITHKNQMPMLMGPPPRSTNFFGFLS
T2 sequence (P51556 whole entry): as the sequence (P51556 whole entry) above

competition at probe-modified peptides from DAGKc and DAGKa subdomains of DGKα ([3]; ATP 1 mM) [%] | inhibition at 1000 µM ([3]; read-out: inhibition of probe labeling at DGKα C1 site (K237)) [%] | Compound | inhibition of JWB003 probe labeling of hDGKa [1] | blockade of DGKα ATP probe labeling [2]
 |  | NC(=O)CI [iodoacetamide] | labeling is inhibited | 
~94 | ~58 | Nc1ncnc2c1ncn2[C@@H]1O[C@H](COP(=O)(O)OP(=O)(O)OP(=O)(O)O)[C@@H](O)[C@H]1O [ATP, adenosine triphosphate] |  | global reductions in fluorescent protein signals
 |  | CCCCCCCCCCCCCC(=O)O[C@@H]1[C@@H](C)[C@@]2(O)[C@@H](C=C(CO)C[C@]3(O)C(=O)C(C)=C[C@@H]23)[C@@H]2C(C)(C)[C@]12OC(C)=O [PMA] | Probe labeling is inhibited | 
